In one data set the test system is TNF-α. As to the kind of experiment: Inhibition of LPS-induced TNF-α secretion in human PBMC (ELISA). Format: cell-based. How it is done: (§1) The action of the these thiothalidomide analogs in inhibiting TNF-α secretion was assessed in human peripheral blood mononuclear cells (PBMC) and the results are shown in Table 1. Freshly prepared PBMCs were utilized in all studies. Blood, 40 ml, was drawn from a volunteer, immediately mixed with 50 U/ml Na heparin and was diluted to 50 ml total volume with sterile PBS. Samples, 20 ml, of this preparation then were layered on 20 ml Ficoll-Paque and were centrifuged (800 g, 20 min). The Ficoll/serum interface, containing PBMCs, was collected, diluted to 200 ml with PBS, and then was centrifuged (800 g, 15 min) to pellet the cells. Thereafter, the recovered pellet was re-suspended in 37° C. tissue culture medium (RPMI/1 mM Sodium pyruvate/10% heat inactivated FBS/2 mM Glutamax) and placed on ice. Recovered cells were counted, pipetted (200 ul of 5×10^5/ml) into 96 well plates, and incubated for an hour (37° C., 5% CO2). Thereafter, appropriate concentrations of test compounds or vehicle (10 ul DMSO) were added to duplicate wells. Following a further hour of incubation, a 10 ul sample of lipopolysaccharide (LPS) (100 ng/ml in supplemented medium) or vehicle was added to induce stimulated and unstimulated cells, respectively, and the cells were incubated overnight. Sixteen hours later, supernatants were collected for quantification of TNF-α levels by ELISA assay (Pierce-Endogen human TNF-α mini kit, Rockford, Ill.) and the use of specific capture and detection monoclonal antibodies, M303E and M302B (Pierce-Endogen), respectively. ELISA plates were read at λ=450 nm and TNF-α levels were determined from a six-point calibration curve that was run concurrently with the test samples. The effect of test drug concentrations on the cellular viability of PBMCs was assessed by MTS assay (Promega, Madison, Wis.) of the cells that provided the supernatant samples assayed for TNF-α levels, described above. It should be understood that this method can be used to test any of the disclosed compounds as a screening assay for readily determining their TNF-α modulating activity, and for selecting them for use in the disclosed method of treating a subject.
(An ELISA detects its analyte on a solid surface through an enzyme-linked reagent.)

A further data set relates to 3′-UTR of human TNF-α. As to the kind of experiment: Luciferase reporter assay, RAW264.7 cells with vs without the TNF-α 3′-UTR. The format is cell-based. The settings on record: mouse macrophage line RAW264.7, 16 h; FIG. 1. How it is done: To determine the involvement of the 3′-UTR in the action of the thalidomide analogs, their ability to inhibit reporter gene activity in cells containing the TNF-α3′-UTR versus a control vector was assessed. This cell-based assay utilized two stably transfected cell lines derived from the mouse macrophage line, RAW264.7. One line, designated “luciferase only” expressed a luciferase reporter construct without any UTR sequences. The other line, designated “luciferase+TNF-α UTR” expressed a luciferase reporter construct with the entire 3′-UTR of human TNF-α inserted directly downstream of the luciferase coding region. Compounds were added in a concentration-dependent manner, and at the end of the incubation period (16 h, 37° C., 5% CO2) the media was removed, cells were lysed and luciferase activity was assayed with Steady-glo luciferase assay reagent (Promega) according to the supplier's directions. Background was subtracted and data from this assay was expressed as a ratio of the +3′-UTR to −3′-UTR (control) values, and was expressed as a percent as shown in FIG. 1. In this manner, compounds that show a differential effect on the two cell lines, with and without a 3′-UTR, are highlighted. […] All agents lowered luciferase reporter activity in cells stably expressing the 3′-UTR.
A general note: In a reporter assay the amount or activity of a reporter protein is the signal.

For the next data set, the system named is PBMC. The experiment in a line: Cellular viability of PBMCs by MTS assay. The format is cell-based, human. How it is done: as §1

Each structure is given as a SMILES string. “Also recorded” adds a separate entry of the source.

On to `S=C1CCCC(=S)N1` [Compound 219, 2,6-Piperidinedithione], for which the melting point – broadly, the temperature of the solid-liquid transition – stood at 103 °C. Besides, half-maximal inhibition in the data set on TNF-α (Homo sapiens, LPS-induced TNF-α production in PBMC) (IC50) required 8 µM. 30 µM produced 75% inhibition with TNF-α (Homo sapiens, LPS-induced TNF-α production in PBMC, 30 μM). Also, the “TNF-α inhibitory activity (in words)” value in the data set on TNF-α (LPS-stimulated PBMC) was “potent inhibitory effect; also recorded: potently inhibited TNF-α secretion”. Moreover, the “Fold more active than thalidomide 201” value with TNF-α (inhibition of TNF-α synthesis, from IC50 values) turned out to be 25 fold. Besides, the “Luciferase reporter activity, +3′-UTR versus −3′-UTR cells (in words)” value with 3′-UTR of human TNF-α was “differential effect on the two cell lines in a dose-dependent manner”. For the same compound, in the data set on PBMC, the “Toxicity / cytotoxicity (in words)” value is listed as “lack of toxicity; also recorded: without toxicity”. Also, the Cell viability at 0.3 μM with PBMC (0.3 μM) worked out at 99%. Moreover, the Cell viability at 3 μM in the data set with PBMC (3 μM) is 98%. The Cell viability at 30 μM with PBMC (30 μM) was more than 100%.

For the origin of these results see patent US8546430B2, “Thalidomide analogs” (P2D, Inc., priority 2003, dated 2013).
